# In patent US20210283107A1, “Methods to Expand the Spectrum of Gram-Positive Antibiotics” (NORTH CAROLINA STATE UNIVERSITY, priority 2016, published 2021):
# Values joined by “and” are separate entries in the source; they are usually repeats but may differ in a detail not shown here. Equal values may be shown once.
# Key:
# Type in all cases: cell-based, Acinetobacter baumannii
# [1] = tested on: AB5075; assay: H33342 accumulation assay (efflux)
# Experimental: In addition to the evaluation of the relationship between compounds 1 and 4 and colistin, the impact of compound 1 on efflux was evaluated using AB5075 and a bisBenzimide H33342 trihydrochloride (H33342) accumulation assay. Using a procedure adapted from Coldham et al. (A 96-well plate fluorescence assay for assessment of cellular permeability and active efflux in Salmonella enterica serovar Typhimurium and Escherichia coli. J Antimicrob Chemother, 2010. 65(8): p. 1655-63) and Richmond et al. (Efflux in Acinetobacter baumannii can be determined by measuring accumulation of H33342 (bis-benzamide). J Antimicrob Chemother, 2013. 68(7): p. 1594-600), the effect of no treatment, a known inhibitor carbonyl cyanide-m-chlorophenyl hydrazone (CCCP), and compound 1 on efflux was analyzed over 30 minutes and in two different treatment variations. Fluorescence was read using excitation and emission filters of 355 and 460 nm, and the values were processed in excel. The first analysis was performed immediately after treating the bacteria with compound 1 at both 10 and 30 μM and CCCP at 25 μM.
# The second analysis was performed after exposing the bacteria to compound 1 at 30 μM for 5-hours shaking at 37° C.
# [2] = tested on: A. baumannii mutant AB522; assay: Dose dependent resistance suppression (antibiotic MIC with compound) in AB522
# Experimental: There was no notable reduction in antibiotic MIC observed with either compound and both strains 522 and 1310. […] Even at the highest concentration, no potentiation was observed.
# Day Cultures (6 h) were subcultured to 5×10^5 CFU/mL in cation adjusted Mueller-Hinton broth (CAMHB). […] One milliliter of the resulting solution was aliquoted into a separate culture tube and was dosed with antibiotic so that the resulting concentration was the highest desirable concentration to be tested. Bacteria treated with antibiotic alone were used as a control. Row one of a 96-well plate was filled with 200 μL of the antibiotic/compound solution, and the remaining rows were filled with 100 μL of the remaining 4 mL bacterial subculture. The wells in row one were mixed five times before 100 μL was transferred to the following row (row two). Row two was then mixed five times, and 100 μL was transferred to row three. This process was repeated until the second to last row had been reached. The last row is left unexposed to antibiotic in order to serve as a negative control. The antibiotic only treated bacteria was plated by aliquoting 200 μL of the treated bacteria into row one and filling the remaining rows with untreated bacteria from the original bacteria subculture. The rows were mixed in the same way as described above. Plates were covered with Glad Press n'Seal and were incubated under stationary conditions at 37° C. for 16 hours. MIC values were recorded as the lowest concentration at which no bacterial growth was observed. Fold reductions were determined by comparison of the compound treated wells with the antibiotic only treated control wells.
# [3] = tested on: A. baumannii strain 5075; assay: Time kill curve; details: for growth similar to the control after: AB5075, time kill curve; for Initial toxicity seen until (time point): AB5075 growth, time kill curve
# Experimental: A. baumannii strain 5075 was grown in the presence of compound 1 at either 20 μM or 30 μM, and samples were plated at 2, 4, 6, 8, and 24 hour time points. Initial toxicity was seen until the 4-hour time point for 20 μM and 8-hour time point for 30 μM; however, growth was similar to the control after 6 hours for 20 μM and 24 hours for 30 μM.
# A. baumannii 5075 was grown overnight (16 hours) in CAMHB at 37° C. with shaking. This culture was then subcultured to 5×10^5 CFU/mL in fresh CAMHB. The inoculated media was aliquoted (3 mL) into culture tubes, and the compound was added from 100 mM stock solutions. Untreated inoculated culture tubes served as the control, and tubes were incubated at 37° C. with shaking. Samples were taken at 2, 4, 6, 8, and 24 hour time points and were serially diluted in fresh CAMHB and plated on LB agar. Plates were incubated under stationary conditions overnight at 37° C. After incubation, colonies were enumerated and growth curves were constructed.
# [4] = tested on: AB5075; assay: Checkerboard assay for FIC determination with colistin; details: chequerboard, ΣFIC≥2 considered antagonistic
# Experimental: Against AB5075, we determined that the ΣFIC with compound 1 to be 17 and the ΣFIC with compound 10 to be 33. These ΣFIC values indicate that both compounds are highly antagonistic with colistin as a ΣFIC≥2 is considered antagonistic.
# Day Cultures (6 h) of A. baumannii 5075 were subcultured to 5×10^5 CFU/mL in cation adjusted Mueller-Hinton broth (CAMHB). 100 μL of the inoculated media was distributed into all wells of a 96-well plate except well 1A. Inoculated CAMHB (200 μL) containing compound (twice the highest concentration tested) was added to well 1A, and 100 μL of the same sample was added to wells 2A-12A. The contents in column A were mixed five times before 100 μL was transferred to column B. The contents of column B were mixed 5 times before transferring to column C. This process was repeated with the remainder of the columns up to column G. Column H was not mixed to allow determination of the antibiotic MIC alone. […] Row 12 was not mixed so that the MIC of the compound alone could be determined. The MICs of both compound and antibiotic alone were recorded, as well as the wells containing the combination. The ΣFICs were calculated as follows: ΣFIC=FIC (Compound)+FIC (antibiotic), where FIC (compound) is the MIC of the compound in the combination/MIC of the compound alone and the FIC (antibiotic) is the MIC of the antibiotic in combination/the MIC of the antibiotic alone. […]
compound,measurement,setting,value
Nc1nc(-c2ccc(NC(=O)c3cc(Cl)cc(Cl)c3)cc2)c[nH]1 [Compound 1],"H33342 accumulation, fluorescence at 355 and 460 nm","[1]; 10 μM compound, immediately following exposure, time 0 minutes","14,084.3 ± 2,839.3"
same,"H33342 accumulation, fluorescence at 355 and 460 nm","[1]; 10 μM compound, immediately following exposure, time 10 minutes","12,812.4 ± 2,718.2"
same,"H33342 accumulation, fluorescence at 355 and 460 nm","[1]; 10 μM compound, immediately following exposure, time 20 minutes","11,627.8 ± 3,119"
same,"H33342 accumulation, fluorescence at 355 and 460 nm","[1]; 10 μM compound, immediately following exposure, time 30 minutes","12,147.8 ± 2,742.8"
same,"H33342 accumulation, fluorescence at 355 and 460 nm","[1]; 30 μM compound, following exposure for 5 hours, time 0 minutes","12,226.7 ± 4,671.7"
same,"H33342 accumulation, fluorescence at 355 and 460 nm","[1]; 30 μM compound, following exposure for 5 hours, time 10 minutes","15,247 ± 5,499.3"
same,"H33342 accumulation, fluorescence at 355 and 460 nm","[1]; 30 μM compound, following exposure for 5 hours, time 20 minutes","25,603.1 ± 5,212.9"
same,"H33342 accumulation, fluorescence at 355 and 460 nm","[1]; 30 μM compound, following exposure for 5 hours, time 30 minutes","33,441.1 ± 3,260.3"
same,"H33342 accumulation, fluorescence at 355 and 460 nm","[1]; 30 μM compound, immediately following exposure, time 0 minutes","21,152.2 ± 5,161.7"
same,"H33342 accumulation, fluorescence at 355 and 460 nm","[1]; 30 μM compound, immediately following exposure, time 10 minutes","21,651 ± 8,731.7"
same,"H33342 accumulation, fluorescence at 355 and 460 nm","[1]; 30 μM compound, immediately following exposure, time 20 minutes","19,748.3 ± 9,182.4"
same,"H33342 accumulation, fluorescence at 355 and 460 nm","[1]; 30 μM compound, immediately following exposure, time 30 minutes","19,562.4 ± 9,574"
same,H33342 fluorescence versus untreated,[1]; after exposure to compound at 30 μM for 5 hours,comparable fluorescence values
same,change in H33342 fluorescence over 30 minutes,"[1]; immediately after treating, compound 1 at both 10 and 30 μM, CCCP at 25 μM",a decrease in fluorescence
same,Azithromycin MIC,[2]; compound Conc. Tested 2 (μM),8 µg/mL and 4 µg/mL
same,Clarithromycin MIC,[2]; compound Conc. Tested 2 (μM),1 µg/mL
same,Erythromycin MIC,[2]; compound Conc. Tested 2 (μM),2 µg/mL
same,Vancomycin MIC,[2]; compound Conc. Tested 2 (μM),64 µg/mL
same,Azithromycin MIC,[2]; compound Conc. Tested 3 (μM),4 µg/mL and 8 µg/mL
same,Clarithromycin MIC,[2]; compound Conc. Tested 3 (μM),1 µg/mL
same,Erythromycin MIC,[2]; compound Conc. Tested 3 (μM),2 µg/mL and 4 µg/mL
same,Vancomycin MIC,[2]; compound Conc. Tested 3 (μM),64 µg/mL
same,Azithromycin MIC,[2]; compound Conc. Tested 4 (μM),4 µg/mL
same,Clarithromycin MIC,[2]; compound Conc. Tested 4 (μM),1 µg/mL
same,Erythromycin MIC,[2]; compound Conc. Tested 4 (μM),4 µg/mL and 2 µg/mL
same,Vancomycin MIC,[2]; compound Conc. Tested 4 (μM),32 µg/mL
same,Azithromycin MIC,[2]; compound Conc. Tested 5 (μM),4 µg/mL
same,Clarithromycin MIC,[2]; compound Conc. Tested 5 (μM),0.5 µg/mL
same,Erythromycin MIC,[2]; compound Conc. Tested 5 (μM),2 µg/mL
same,Vancomycin MIC,[2]; compound Conc. Tested 5 (μM),32 µg/mL
same,growth similar to the control after,[3]; compound alone at 20 μM,6 h
same,Initial toxicity seen until (time point),[3]; compound alone at 20 μM,4 h
same,growth similar to the control after,[3]; compound alone at 30 μM,24 h
same,Initial toxicity seen until (time point),[3]; compound alone at 30 μM,8 h
same,ΣFIC with colistin,[4],17
